Source: PMC7580834, “Inhibition mechanism of naphthylphenylamine derivatives acting on the CDC25B dual phosphatase and analysis of the molecular processes involved in the high cytotoxicity exerted by one selected derivative in melanoma cells” (Journal of Enzyme Inhibition and Medicinal Chemistry, 2020)
Like-named read-outs stand apart in the source and are kept apart here. Residues, ends and D or L forms follow the SMILES beside them. *: point of attachment. Cbz = O=C(OCc1ccccc1)*; CH2F = FC*

Key:
CDC25B [1] = target: T1, CDC25B (Homo sapiens, UniProt P30305); experiment: Intrinsic fluorescence quenching of recombinant CDC25B catalytic domain (Stern-Volmer); format: binding; settings: for KSV (Stern-Volmer constant): 0.2 µM wild-type CDC25B, emission 357 nm, 20 °C, no OMFP; for K′D/Ki ratio: K′D of free CDC25B•inhibitor over Ki; for Kd: reciprocal of KSV, inhibitor concentration leading to 50% quenching of CDC25B emission, read-out: K′D of the complex, Free CDC25B•inhibitor
T1 sequence (P30305 377-551 isoform P30305-2 limits assumed): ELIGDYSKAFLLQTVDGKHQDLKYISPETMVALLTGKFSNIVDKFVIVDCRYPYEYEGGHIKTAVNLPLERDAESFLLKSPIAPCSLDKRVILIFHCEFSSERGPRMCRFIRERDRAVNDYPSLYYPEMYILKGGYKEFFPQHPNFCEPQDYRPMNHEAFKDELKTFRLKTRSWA
Procedure: (§1) Fluorescence spectra were recorded at 20 °C using a computer-assisted Cary Eclipse spectrofluorimeter (Varian, Palo Alto, CA, USA) equipped with an electronic temperature controller. The excitation wavelength was set at 280 nm and the excitation and emission slits were set at 10 and 20 nm, respectively. A 500 µL final volume of a 0.2 µM solution of CDC25B or CDC25B-C473S dissolved in 20 mM Tris•HCl, pH 7.8, 0.5 mM TCEP was directly prepared in the fluorimetric cuvette in the absence or in the presence of OMFP and/or some NPA derivatives. Serial pre-dilutions of the NPA derivatives or OMFP at increasing concentration were prepared in DMSO or methanol, respectively. Alongside, a convenient amount of the enzyme pre-dilution was prepared just before its usage for the experiment and stored on ice. When the combined effect of NPA derivative and OMFP was investigated, two enzyme pre-dilutions were prepared in the absence or in the presence of 5 µM OMFP. In order to evaluate the specific effect produced by any addition of solvent/ligand on the intrinsic fluorescence of the enzyme, 495 µL of the enzyme pre-dilution were placed in the fluorimetric cuvette and the relative spectrum was recorded; after the addition of 5 µL of each pre-dilution of solvent/ligand and fast mixing, the spectrum was recorded again. This procedure, repeated for each experimental point, allowed a normalisation of the specific effects produced by solvent/ligands. Furthermore, a correction was also applied for the little inner-filter effect due to the absorbance at 280 nm of the NPA derivative used at different concentrations; on the other hand, no correction was necessary for OMFP. All spectra, recorded at a scan speed of 120 nm/min, were normalised and corrected.

CDC25B [2] = target: T2, CDC25B (Homo sapiens, UniProt P30305); experiment: Kinetic studies of CDC25B phosphatase inhibition (OMFP substrate); format: biochemical; settings: putative from Lineweaver-Burk plots (ref 18), confirmed by the fluorescence studies of this work
T2 sequence (P30305 1-580): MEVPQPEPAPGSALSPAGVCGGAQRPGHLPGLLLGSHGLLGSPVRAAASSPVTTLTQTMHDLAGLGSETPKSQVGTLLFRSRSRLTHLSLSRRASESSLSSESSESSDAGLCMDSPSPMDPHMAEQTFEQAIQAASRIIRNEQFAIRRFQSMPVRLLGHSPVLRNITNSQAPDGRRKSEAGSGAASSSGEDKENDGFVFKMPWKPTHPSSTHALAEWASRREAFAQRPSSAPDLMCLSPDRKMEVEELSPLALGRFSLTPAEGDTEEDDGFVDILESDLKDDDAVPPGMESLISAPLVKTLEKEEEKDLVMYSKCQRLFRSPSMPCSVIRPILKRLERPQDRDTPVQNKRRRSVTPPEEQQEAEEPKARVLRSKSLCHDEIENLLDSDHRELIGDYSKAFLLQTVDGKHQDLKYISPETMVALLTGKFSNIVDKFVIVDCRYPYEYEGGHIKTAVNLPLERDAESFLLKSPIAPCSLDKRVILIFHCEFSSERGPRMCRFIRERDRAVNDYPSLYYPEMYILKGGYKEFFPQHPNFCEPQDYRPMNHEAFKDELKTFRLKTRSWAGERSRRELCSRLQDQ

OMFP-bound CDC25B-C473S [3] = target: T3, OMFP-bound CDC25B-C473S (Homo sapiens, UniProt P30305, C487S); experiment: Intrinsic fluorescence quenching of CDC25B-C473S in the presence of 5 µM OMFP (Stern-Volmer); format: binding; settings: reciprocal of KSV; presence of 5 µM OMFP; read-out: K′D of the complex, OMFP-bound CDC25B-C473S•inhibitor
T3 sequence (P30305 370-580 C487S): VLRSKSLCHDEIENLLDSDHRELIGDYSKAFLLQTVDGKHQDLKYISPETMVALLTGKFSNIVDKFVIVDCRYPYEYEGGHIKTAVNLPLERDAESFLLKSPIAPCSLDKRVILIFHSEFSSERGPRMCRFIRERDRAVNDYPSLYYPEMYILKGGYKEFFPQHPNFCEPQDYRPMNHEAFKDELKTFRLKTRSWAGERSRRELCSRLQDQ
Excerpt: (§2) The mutant form of CDC25B, carrying the C473S replacement (CDC25B-C473S), was obtained through site-directed mutagenesis of the CDC25B catalytic segment cloned in pET28a-CDC25B-cd. To this aim, the QuikChange site-directed mutagenesis kit (Stratagene, La Jolla, CA, USA) and the forward and reverse primers for C473S replacement (5′d-[…]-3′ and 5′d-[…]-3′) were used. Positive clones were obtained, and the nucleotide sequencing of the mutagenised segment excluded the presence of undesired mutations. The new vector was called pET28a-CDC25B-C473S-cd. The expression of the new vector and the purification of the recombinant form of CDC25B-C473S catalytic domain were carried out as previously reported for wild-type CDC25B catalytic domain[18], and similar yields were obtained. As expected, the mutant enzyme was unable to hydrolyse the synthetic substrate OMFP, when its activity was checked with the fluorimetric assay method previously described.
as §1

CDC25B [4] = target: T2, CDC25B; settings: cited from earlier work
some tumour cells = tested on: some tumour cells; parameters: method as in PMID 22524450; settings: 200 µM; cited from earlier work
A2058 cells = experiment: Apoptosis by cytofluorimetry after PI incorporation (subdiploid DNA content); format: cell-based, human; settings: 100 µM Z-VAD-FMK plus 10 µM 4a, 48 h
Procedure: (§3) The human melanoma cell lines A375 and A2058, deriving from a primary tumour or lymph nodal metastasis, respectively, were kindly provided from CEINGE (Naples, Italy). Cells were grown in DMEM supplemented with 10% FBS, 2 mM L-glutamine, 100 IU/mL penicillin G and 100 µg/mL streptomycin in humidified incubator at 37 °C under 5% CO2 atmosphere. The cell line BJ-5ta, a human skin fibroblast immortalised with the human telomerase reverse transcriptase[30] was cultured in a 4:1 mixture of DMEM and Medium 199 supplemented with 4 mM L-glutamine, 4.5 g/L glucose, 1.5 g/L sodium bicarbonate, 10% FBS, 100 IU/mL penicillin G, […] streptomycin in humidified incubator at 37 °C under 5% CO2 atmosphere. All cells were split and seeded every 3 days and used during their exponential phase of growth. Cell treatments were usually carried out after 24 h from plating.
(§4) Cytofluorimetric analysis was used to determine the number of apoptotic nuclei essentially as previously described. Briefly, cells were seeded into six-well plates at 3 × 10^5 cells/well and after 24 h were treated with 4a or 0.5% (v/v) DMSO and incubated for different times. Then, cells were harvested with trypsin, and centrifuged, and the pellets were resuspended in 200 µL of a hypotonic lysis solution containing 50 µg/mL PI. After incubation at 4 °C for 30 min, cells were analysed with a FACScan flow cytometer (Becton Dickinson, Franklin Lakes, NJ, USA) to evaluate the presence of nuclei with DNA content lower than diploid.

A375 cells = experiment: as above; format: cell-based, human; settings: 100 µM Z-VAD-FMK plus 10 µM 4a, 48 h
Procedure: as §3, §4

OMFP-bound CDC25B-C473S [5] = experiment: Intrinsic fluorescence quenching of CDC25B-C473S in the presence of 5 µM OMFP (Stern-Volmer); format: binding; settings: for KSV (Stern-Volmer constant): 0.2 µM CDC25B-C473S, in the presence of 5 µM OMFP; for K′D/Ki ratio: K′D of OMFP-bound CDC25B-C473S•inhibitor over Ki
Excerpt: as §2, §1

SMILES | KSV (Stern-Volmer constant) (CDC25B [1]) [µM⁻¹] | K′D/Ki ratio (CDC25B [1]) | Kd (CDC25B [1]) [µM] | Inhibition mechanism (CDC25B [2]) | Kd (OMFP-bound CDC25B-C473S [3]) [µM] | also measured
O=C(O)c1ccccc1Nc1ccc(O)c2ccccc12 [6e] | 0.035 | 10.6 | 28.6 | noncompetitive | – | –
Nc1ccc(Nc2cccc(C(=O)O)c2)c2ccccc12 [7i] | 0.069 | 10.4 | 14.5 | noncompetitive | – | –
O=C(O)c1ccc(C(=O)c2ccccc2C(=O)O)cc1C(=O)O [NSC28620] | – | – | – | – | – | Inhibition mechanism (CDC25B [4]; lead compound): reversible competitive; cell growth rate of some tumour cells (some tumour cells): reduced
COc1ccc2c(c1)Oc1cc(OP(=O)(O)O)ccc1C21OC(=O)c2ccccc21 (stereo not drawn) [OMFP, O-methylfluorescein phosphate] | – | – | – | – | – | Km (CDC25B [4]; read-out: KM of the wild type CDC25B for the substrate): 2.7 ± 0.2 µM
COC(=O)C[C@H](NC(=O)[C@H](C)NC(=O)[C@@H](NC(=O)OCc1ccccc1)C(C)C)C(=O)CF [Z-VAD-FMK, reference compound] (Cbz-Val-Ala-Asp(OMe)-CH2F) | – | – | – | – | – | apoptosis level induced by 4a upon exposure to the caspase inhibitor (A2058 cells): partial but significant reduction; apoptosis level induced by 4a upon exposure to the caspase inhibitor (A375 cells): partial but significant reduction

The next lines start with results.

KSV (Stern-Volmer constant) (CDC25B [1]) [µM⁻¹] | K′D/Ki ratio (CDC25B [1]) | Kd (CDC25B [1]) [µM] | Inhibition mechanism (CDC25B [2]) | Kd (OMFP-bound CDC25B-C473S [3]) [µM] | SMILES | also measured
0.129 | 9.7 | 7.8 | noncompetitive | 15.1 | Nc1cccc2c(Nc3cccc(C(=O)O)c3)cccc12 [7j] | –
0.011 | – | > 50 | uncompetitive | 24 | CCOC(=O)c1ccccc1Nc1cccc2ccccc12 [compound 3] | KSV (Stern-Volmer constant) (OMFP-bound CDC25B-C473S [5]): 0.042 µM⁻¹; K′D/Ki ratio (OMFP-bound CDC25B-C473S [5]): 8.6
0.016 | – | > 50 | uncompetitive | 43 | CCOC(=O)c1cccc(Nc2cccc3ccccc23)c1 [compound 4] | KSV (Stern-Volmer constant) (OMFP-bound CDC25B-C473S [5]): 0.023 µM⁻¹; K′D/Ki ratio (OMFP-bound CDC25B-C473S [5]): 5.9
